# According to PubChem BioAssay (NCI):
#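 Five compound concentrations were applied to cells in 96-well plates for 48 hours; endpoints were derived by simple linear interpolation of the resulting dose-response curve. Definition used: TGI = concentration required for complete inhibition of growth.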
# Experiments:
# Test in all cases: NCI tumour cell line growth inhibition, 48 h
# RXF 393 renal = system: RXF 393 renal
# MOLT-4 leukemia = system: MOLT-4 leukemia
# K-562 leukemia = system: K-562 leukemia
# CCRF-CEM leukemia = system: CCRF-CEM leukemia
# SW-620 colon = system: SW-620 colon
# NCI-H23 lung = system: NCI-H23 lung
# SNB-75 CNS = system: SNB-75 CNS
# SK-OV-3 ovarian = system: SK-OV-3 ovarian
# HL-60(TB) leukemia = system: HL-60(TB) leukemia
# HCC-2998 colon = system: HCC-2998 colon
# SK-MEL-5 melanoma = system: SK-MEL-5 melanoma
# SR leukemia = system: SR leukemia
# M14 melanoma = system: M14 melanoma
# UACC-62 melanoma = system: UACC-62 melanoma
# COLO 205 colon = system: COLO 205 colon
# RPMI-8226 leukemia = system: RPMI-8226 leukemia
# HCT-15 colon = system: HCT-15 colon
# CAKI-1 renal = system: CAKI-1 renal
# IGROV1 ovarian = system: IGROV1 ovarian
# EKVX NSCLC = system: EKVX NSCLC
# MDA-N = system: MDA-N
# SF-295 CNS = system: SF-295 CNS
# HT29 colon = system: HT29 colon
# A549 NSCLC = system: A549 NSCLC
# OVCAR-8 ovarian = system: OVCAR-8 ovarian
# T-47D breast = system: T-47D breast
# UACC-257 melanoma = system: UACC-257 melanoma
# TK-10 renal = system: TK-10 renal
# MDA-MB-231 breast = system: MDA-MB-231 breast
# 786-0 renal = system: 786-0 renal
# SN12C renal = system: SN12C renal
# MALME-3M melanoma = system: MALME-3M melanoma
# SF-268 CNS = system: SF-268 CNS
# MCF7 breast = system: MCF7 breast
# KM12 colon = system: KM12 colon
# DU-145 prostate = system: DU-145 prostate
# HOP-62 NSCLC = system: HOP-62 NSCLC
# SK-MEL-28 melanoma = system: SK-MEL-28 melanoma
# PC-3 prostate = system: PC-3 prostate
# NCI/ADR-RES ovarian = system: NCI/ADR-RES ovarian
# ACHN renal = system: ACHN renal
# SF-539 CNS = system: SF-539 CNS
# NCI-H226 lung = system: NCI-H226 lung
# HOP-92 NSCLC = system: HOP-92 NSCLC
# HCT-116 colon = system: HCT-116 colon
# OVCAR-4 ovarian = system: OVCAR-4 ovarian
# A498 renal = system: A498 renal
# OVCAR-5 ovarian = system: OVCAR-5 ovarian
# SNB-19 CNS = system: SNB-19 CNS
# NCI-H522 lung = system: NCI-H522 lung
# U251 CNS = system: U251 CNS
# UO-31 renal = system: UO-31 renal
# HS 578T breast = system: HS 578T breast
# LOX IMVI melanoma = system: LOX IMVI melanoma
# SK-MEL-2 melanoma = system: SK-MEL-2 melanoma
# MDA-MB-435 = system: MDA-MB-435
# NCI-H460 lung = system: NCI-H460 lung
compound,measurement,setting,value
O=[N+]([O-])c1ccc(/C=N/Nc2nnc3c4ccccc4c4ncccc4c3n2)o1,TGI,RXF 393 renal,> 10 µM
same,TGI,MOLT-4 leukemia,> 10 µM
same,TGI,K-562 leukemia,> 10 µM
same,TGI,CCRF-CEM leukemia,> 10 µM
same,TGI,SW-620 colon,> 10 µM
same,TGI,NCI-H23 lung,> 10 µM
same,TGI,SNB-75 CNS,> 10 µM
same,TGI,SK-OV-3 ovarian,> 10 µM
same,TGI,HL-60(TB) leukemia,> 10 µM
same,TGI,HCC-2998 colon,> 10 µM
same,TGI,SK-MEL-5 melanoma,> 10 µM
same,TGI,SR leukemia,> 10 µM
same,TGI,M14 melanoma,> 10 µM
same,TGI,UACC-62 melanoma,> 10 µM
same,TGI,COLO 205 colon,> 10 µM
same,TGI,RPMI-8226 leukemia,> 10 µM
same,TGI,HCT-15 colon,> 10 µM
same,TGI,CAKI-1 renal,> 10 µM
same,TGI,IGROV1 ovarian,> 10 µM
same,TGI,EKVX NSCLC,> 10 µM
same,TGI,MDA-N,> 10 µM
same,TGI,SF-295 CNS,> 10 µM
same,TGI,HT29 colon,> 10 µM
same,TGI,A549 NSCLC,> 10 µM
same,TGI,OVCAR-8 ovarian,> 10 µM
same,TGI,T-47D breast,> 10 µM
same,TGI,UACC-257 melanoma,> 10 µM
same,TGI,TK-10 renal,> 10 µM
same,TGI,MDA-MB-231 breast,> 10 µM
same,TGI,786-0 renal,> 10 µM
same,TGI,SN12C renal,> 10 µM
same,TGI,MALME-3M melanoma,> 10 µM
same,TGI,SF-268 CNS,> 10 µM
same,TGI,MCF7 breast,> 10 µM
same,TGI,KM12 colon,> 10 µM
same,TGI,DU-145 prostate,> 10 µM
same,TGI,HOP-62 NSCLC,> 10 µM
same,TGI,SK-MEL-28 melanoma,> 10 µM
same,TGI,PC-3 prostate,> 10 µM
Cc1ccc(S(=O)(=O)N2C[C@](O)(c3ccccc3)[C@H]2C)cc1,TGI,NCI/ADR-RES ovarian,> 100 µM
same,TGI,ACHN renal,> 100 µM
same,TGI,RXF 393 renal,> 100 µM
same,TGI,SF-539 CNS,> 100 µM
same,TGI,NCI-H226 lung,> 100 µM
same,TGI,MOLT-4 leukemia,> 100 µM
same,TGI,CCRF-CEM leukemia,> 100 µM
same,TGI,SW-620 colon,> 100 µM
same,TGI,NCI-H23 lung,> 100 µM
same,TGI,SNB-75 CNS,> 100 µM
same,TGI,SK-OV-3 ovarian,> 100 µM
same,TGI,HOP-92 NSCLC,> 100 µM
same,TGI,HCT-116 colon,> 100 µM
same,TGI,HL-60(TB) leukemia,> 100 µM
same,TGI,SK-MEL-5 melanoma,> 100 µM
same,TGI,M14 melanoma,> 100 µM
same,TGI,OVCAR-4 ovarian,> 100 µM
same,TGI,UACC-62 melanoma,> 100 µM
same,TGI,COLO 205 colon,> 100 µM
same,TGI,HCT-15 colon,> 100 µM
same,TGI,CAKI-1 renal,> 100 µM
same,TGI,A498 renal,> 100 µM
same,TGI,IGROV1 ovarian,> 100 µM
same,TGI,EKVX NSCLC,> 100 µM
same,TGI,MDA-N,> 100 µM
same,TGI,OVCAR-5 ovarian,> 100 µM
same,TGI,SF-295 CNS,> 100 µM
same,TGI,HT29 colon,> 100 µM
same,TGI,A549 NSCLC,> 100 µM
same,TGI,SNB-19 CNS,> 100 µM
same,TGI,NCI-H522 lung,> 100 µM
same,TGI,OVCAR-8 ovarian,> 100 µM
same,TGI,T-47D breast,> 100 µM
same,TGI,UACC-257 melanoma,> 100 µM
same,TGI,TK-10 renal,> 100 µM
same,TGI,MDA-MB-231 breast,> 100 µM
same,TGI,786-0 renal,> 100 µM
same,TGI,SN12C renal,> 100 µM
same,TGI,MALME-3M melanoma,> 100 µM
same,TGI,SF-268 CNS,> 100 µM
same,TGI,U251 CNS,> 100 µM
same,TGI,MCF7 breast,> 100 µM
same,TGI,UO-31 renal,> 100 µM
same,TGI,KM12 colon,> 100 µM
same,TGI,HS 578T breast,> 100 µM
same,TGI,DU-145 prostate,> 100 µM
same,TGI,LOX IMVI melanoma,> 100 µM
same,TGI,HOP-62 NSCLC,> 100 µM
same,TGI,SK-MEL-2 melanoma,> 100 µM
same,TGI,MDA-MB-435,> 100 µM
same,TGI,SK-MEL-28 melanoma,> 100 µM
same,TGI,PC-3 prostate,> 100 µM
same,TGI,NCI-H460 lung,> 100 µM
